According to patent publication US20100137342A1, “METHODS FOR TREATING VASCULAR […]” (Myriad Pharmaceuticals, Inc., priority 2007, published 2010):
Where a name gives a salt, the structure may show the parent alone.

Experiments:
[1] = tested on: human ovarian OVCAR-3 carcinoma cells; assay: Vascular disruption effects in human tumor xenograft model (tumor histology, hematoxylin and eosin); assay type: in vivo, mice; conditions: 24 hours after dosing; for blood vessels in the necrotic areas / tumor necrosis pattern (central area of the tumors): OVCAR-3 xenograft in Crl:Nu/Nu-nuBR mice, 10 mg/kg compound or 100 mg/kg CA4P, H&E sections
Method: (4-Methoxy-phenyl)-methyl-(2-methyl-quinazolin-4-yl)-amine hydrochloride was tested in a human tumor xenograft model to determine its vascular disruption effects. Crl:Nu/Nu-nuBR mice were grown and injected with 1×10^7 human ovarian OVCAR-3 carcinoma cells on the right flank and allowed to grow to various tumor volumes. Mice were then dosed with either vehicle, 100 mg/kg combretastatin A-4 phosphate (CA4P) (obtained from Toronto Research Chemicals, Ontario, Canada) or 10 mg/kg (4-Methoxy-phenyl)-methyl-(2-methyl-quinazolin-4-yl)-amine hydrochloride.
Animals were housed by groups in Positive Individual Ventilation (PIV) cages in flat-bottom cages (Thoren Caging Systems, Hazelton, Pa.) with no more than ten mice per cage. Cages contained autoclaved TEK-Fresh bedding (Harlan, Indianapolis, Ind.), which was changed every seven days. Environmental controls were set to maintain a temperature between 65° F. and 75° F. with a relative humidity of 30-70% in a 12:12 hour light:dark cycle. Animals were feed gamma-irradiated 2019 rodent chow ad libitum (Harlan, Indianapolis, Ind.). Tap water was sterilized using manufacture recommended conditions and supplied via an automated watering system ad libitum (Edstrom Industries, Waterford, Wis.). Twenty four hours after dosing, mice were sacrificed and tumors and hearts removed, fixed, sectioned and stained with hematoxylin and eosin Y (each obtained from Richard Allen Scientific, Kalamazoo, Mich.).

[2] = Phase I clinical trial, weekly intravenous administration, subjects with refractory solid tumors; assay type: in vivo, human; conditions: Phase 1, i.v. weekly x3 per 4 week cycle, 0.3-3.3 mg/m^2
Method: An open-label, dose-escalating, multiple-dose study to define the safety, tolerability and phamacokinetics of weekly intravenous administration of (4-Methoxy-phenyl)-methyl-(2-methyl-quinazolin-4-yl)-amine hydrochloride was performed. A dosing schedule (each 4 week cycle) was performed for (4-Methoxy-phenyl)-methyl-(2-methyl-quinazolin-4-yl)-amine hydrochloride weekly for 3 weeks with no infusion on the fourth week of each cycle. Subjects with refractory solid tumors were enrolled in cohorts of 3. During Cycle 1, subjects were hospitalized during each infusion of (4-Methoxy-phenyl)-methyl-(2-methyl-quinazolin-4-yl)-amine hydrochloride and remained for observation and safety evaluation for approximately 24 hours following the end of the infusion. All subject had continuous telemetry for 2 hours prior to infusion, for 1-2 hour infusion and for 3 hours after the end of the infusion. Any clinically significant electrocardiographic (ECG) wave form abnormality was recorded and prolongation of the monitoring period extended at the discretion of the principal investigator.
Electrocardiograms were obtained prior to starting the infusion and within 30 minutes of the end of infusion for each infusino of the first cycle. Electrocardiograms on Day 1 were obtained in triplicate 5 minutes apart.
Neurocognitive assessments were made by administration of the Mini-Mental State Examination (MMSE), the Hopkins Verbal Learning and timed Grooved Pegboard tests before administration of the intravenous infusion and approximately 24 hours of the infusion at each weekly administration of the first cycle.
On days 1, 8, and 15 of each cycle, vital signs were obtained prior to the first dose, at 15, 30, and 60 minutes after the initiation of the infusion, and at 0.5, 1, 1.5, 2, and 4 hours after the end of the intravenous infusion. Vital signs at all time points beyond the start of the intravenous infusion included heart rate, blood pressure and respirations. Temperature ws measured at the end of the infusion and 4 hours later.
Individual subjects were allowed to continue on repeated weekly×3 administrations every 28 days with no dose increase provided there was no unacceptable toxicity or disease progression.
Tumor response was evaluated by response evaluation criteria in solid tumors (RECIST) criteria. To prevent sever hypersensitivity reactions due to Cremophor® EL, subjects were premedicated with oral dexamethasone (20 mg) administered approximately 12 and 6 hours before the intravenous infusion with (4-Methoxy-phenyl)-methyl-(2-methyl-quinazolin-4-yl)-amine hydrochloride, diphenhydramine (50 mg) or its equivalent administered intravenously 30-60 minutes before (4-Methoxy-phenyl)-methyl-(2-methyl-quinazolin-4-yl)-amine hydrochloride, and cimetidine (300 mg) or ranitidine (50 mg) administered intravenously 30-60 minutes before (4-Methoxy-phenyl)-methyl-(2-methyl-quinazolin-4-yl)-amine hydrochloride.

Row | SMILES | blood vessels in the necrotic areas [1] | tumor necrosis pattern (central area of the tumors) [1] | degree of necrosis compared with CA4P treated animals ([1]; OVCAR-3 xenograft, 10 mg/kg compound vs 100 mg/kg CA4P) | bradycardia [2] | dose limiting toxicity [2] | intratumor bleeding [2] | overall safety and tolerability [2] | peripheral cytotoxicity [2] | systolic blood pressure [2] | effects on cardiac conduction (PR, QRS or QTc) ([2]; ECG)
1 | COc1ccc(N(C)c2nc(C)nc3ccccc23)cc1 [(4-Methoxy-phenyl)-methyl-(2-methyl-quinazolin-4-yl)-amine hydrochloride] | consistently congested with perivascular hemorrhage | extensive necrosis with a rim of viable tumor tissue around the periphery | degree of necrosis appeared greater | occasional episodes of bradycardia | vascular in nature, manifested by an acute coronary syndrome | incidences of intratumor bleeding | safe and tolerable | no evidence of cytotoxity peripherally | dose-related increase | no significant effects
2 | COc1ccc(/C=C\c2cc(OC)c(OC)c(OC)c2)cc1OP(=O)(O)O [CA4P, combretastatin A-4 phosphate, reference compound] | consistently congested with perivascular hemorrhage | extensive necrosis with a rim of viable tumor tissue around the periphery | – | – | – | – | – | – | – | –
